Data as given in patent US6620848B2, “Nitric oxide synthase inhibitors” (SmithKline Beecham Corporation, priority 1997, dated 2003).

Assays:
[1] = target: T1, eNOS (Rattus norvegicus, UniProt Q62600); experiment: Inhibition of eNOS in situ in rat aortic rings (basal tone, intact endothelium); assay type: cell-based; conditions: rat aortic rings with intact endothelium, threshold phenylephrine
T1 construct: from tissue; host or cells: rat thoracic aorta rings with intact endothelium
Protocol: (§1) 1. Inhibition of eNOS and iNOS in Rat Aortic Rings
(§2) The inhibition of eNOS and iNOS in situ in rat aortic rings was assessed by measuring the increases in ring tension caused by NO synthase inhibition. For studies of basal tone (reflecting eNOS), rings of thoracic aorta with intact endothelium were prepared as described previously (Rees et al. (1989) Br. J. Pharmol. 96, 418-424) and cumulative concentration curves obtained for the inhibitors in the presence of a threshold concentration of phenylephrine (ED10≈10 nM). For studies of induced smooth muscle tone (reflecting iNOS), endothelium-denuded rings were exposed to LPS (0.1 μ/ml from S. typhosa) in the presence of phenylephrine at approximately ED90 for 6 h as described previously (Rees et al. (1990) Biochem. Biophys. Res. Commun. 173, 541-547). During this time a progressive loss of tone occurred because of iNOS induction. Cumulative concentration curves were then obtained for the inhibitors.

[2] = target: T2, iNOS (Rattus norvegicus, UniProt Q06518); experiment: Inhibition of iNOS in situ in rat aortic rings (induced smooth muscle tone, LPS-exposed endothelium-denuded rings); assay type: cell-based; conditions: for IC50: endothelium-denuded, LPS 6 h, phenylephrine approx. ED90
T2 construct: endothelium-denuded rings were exposed to LPS; from tissue; host or cells: rat thoracic aorta rings, endothelium-denuded, LPS-exposed
Protocol: as §1, §2

SMILES	eNOS % inhib @ 300 μM [1]	selectivity iNOS vs eNOS [2]	IC50 [2]
CC(=N)NCCSCCC(N)C(=O)O (racemic) [Example 2, (R/S)-[2-(1-iminoethylamino)ethyl]-D,L-homocysteine]	53%	>500 fold	0.45 µM
CC(=N)NCCSCC[C@@H](N)C(=O)O [Example 3, (R)-[2-(1-iminoethylamino)ethyl]-D-homocysteine]	20%	>150 fold	6.6 µM
